Experimental findings from patent publication US20240197742A1, “Therapeutic Combinations of a CD19 Inhibitor and a BTK Inhibitor” (Acerta Pharma B.V., priority 2015, published 2024) are described below.

The pIC50 is the IC50 on a negative log10 scale, so that one unit is a factor of ten. One may read the pEC50 as the negative decadic logarithm of the EC50, by convention in mol/L.

pEC50, pIC50: −log10 of the molar value.

Data set [1] has as its system pancreatic cancer (KPC mice). The data set is described as follows: KPC pancreatic cancer model. The format is in vivo. As for the experimental part:
The KPC mouse model recapitulates many of the molecular, histopathologic, and clinical features of human disease (Westphalen and Olive, Cancer J. 2012, 18, 502-510). Combination therapy with gemcitabine was also evaluated in this model. Mice were enrolled after identification of spontaneously appearing tumors in the pancreas that were ≥100 mm^3 (as assessed by high-resolution ultrasonography).

A further data set has as its system NSCLC (KrasLA2). In words: KrasLA2 non-small cell lung cancer model. The format is in vivo, mice. The note with it: dosing of 15 mg/kg. From the text: The model is designed to have sporadic expression in single cells of G12D mutant Kras off its own promoter triggered by spontaneous intrachromosomal recombination. Johnson, et al. Nature 2001, 410, 1111-16. While the mutant Kras protein is expressed in a few cells in all tissues, tumor development is seen only in the lung at high penetrance.

For the next data set, the system named is Th17 cells. In words: Th17 development from enriched CD4+ T cells. The conditions noted are these: anti-TCRβ plus anti-CD28, skewing cytokines, 4 days. The format is cell-based. As for the experimental part:
Enriched CD4^+ T cells are plated on 24-well culture dishes that have been precoated 2 hr with 250 μL anti-TCRβ (0.5 μg/mL) plus anti-CD28 (5 μg/mL) at 37° C. in PBS. The cells are then supplemented with media containing BTK inhibitors along with the skewing cytokines as indicated in the following. The Th17 and Treg cultures are grown for 4 days before analysis. The cells are maintained for an additional 3 days with skewing cytokines (Th17; 20 ng/mL IL-6, 0.5 ng/mL TGF-β, 5 μg/mL IL-4, 5 μg/mL IFN-γ and Treg; 0.5 ng/mL TGF-β, 5 μg/mL IL-4, 5 μg/mL IFN-γ) and are supplemented with IL2 as a growth factor.

The test system of a further data set is GPVI. In words: GPVI platelet aggregation (convulxin). The format is cell-based, human. The method, then: GPVI platelet aggregation was measured for Formula (2) and Formula (10) (ibrutinib). Blood was obtained from untreated humans, and platelets were purified from […] by centrifugation. Cells were resuspended to a final concentration of 350,000/μL in buffer containing 145 mmol/L NaCl, 10 mmol/L HEPES, 0.5 mmol/L Na2HPO4, 5 mmol/L KCl, 2 mmol/L MgCl2, 1 mmol/L CaCl2, and 0.1% glucose, at pH 7.4. Stock solutions of Convulxin (CVX) GPVI were prepared on the day of experimentation and added to platelet suspensions 5 minutes (37° C., 1200 rpm) before the induction of aggregation. Aggregation was assessed with a Chronolog Lumi-Aggregometer (model 540 VS; Chronolog, Havertown, PA) and permitted to proceed for 6 minutes after the addition of agonist. The results are reported as maximum percent change in light transmittance from baseline with platelet buffer used as a reference.
In FIG. 72, the results of CVX-induced (250 ng/mL) human platelet aggregation results before and 15 minutes after administration of the BTK inhibitors to 6 healthy individuals are shown.

Data set [2] deals with BCR activation markers CD69 and CD86. In words: In vivo potency: expression of BCR activation markers after IgM stimulation. The conditions noted are these: mice gavaged, 3 hours post-dose, BCR stimulated with IgM; versus Formula (10). The method, then: Mice were gavaged at increasing drug concentration and sacrificed at one time point (3 hours post-dose). BCR is stimulated with IgM and the expression of activation markers CD69 and CD86 are monitored by flow cytometry to determine EC50 values.
CD86 and CD69 are cell surface proteins that are BCR activation markers. […] BCR was stimulated with IgM and the expression of activation marker CD69 and CD86 are monitored by flow cytometry to determine EC50 values.

The test system of another data set is primary CLL cells. The data set is described as follows: ADCC chromium release assay, primary CLL targets. The format is cell-based, human. The conditions noted are these: 1 μM; E:T 25:1; variable rituximab concentrations. As for the experimental part:
All in vitro experiments were performed in triplicate.
ADCC assays were performed as follows. Briefly, target cells (Raji or primary CLL) were labeled by incubation at 37° C. with 100 μCi ^51Cr for 4 hours prior to co-culture with NK cells. Cells were washed, enumerated, and then added in triplicate to prepared 96-well plates containing treated NK cells at an effector:target (E:T) ratio of 25:1. […] Cultures were incubated at 37° C. for 4 hours, and then centrifuged. Supernatants were harvested and ^51Cr release was measured by liquid scintillation counting. All experiments were performed in triplicate.

Data set [3] deals with KPC derived mouse pancreatic cancer cells. The data set is described as follows: Orthotopic pancreatic cancer model. The format is in vivo. The conditions noted are these: Formula (2) 15 mg/kg/BID given orally. As for the experimental part: In this study, KPC derived mouse pancreatic cancer cells (KrasG12D;Trp53R172H;Pdx1-Cre) were injected into the pancreases.
Single cell suspensions from tumor samples. Mouse tumor tissue was collected and stored in PBS/0.1% soybean trypsin inhibitor prior to enzymatic dissociation. Samples were finely minced with a scissors and mouse tissue was transferred into DMEM containing 1.0 mg/mL collagenase IV (Gibco), 0.1% soybean trypsin inhibitor, and 50 U/ml DNase (Roche) and incubated at 37° C. for 30 min. with constant stirring while human tissue was digested in 2.0 mg/ml collagenase IV, 1.0 mg/ml hyluronidase, 0.1% soybean trypsin inhibitor, and 50 U/ml DNase for 45 minutes. Suspensions were filtered through a 100 micron filter and washed with FACS buffer (PBS/0.5% BSA/2.0 mM EDTA) prior to staining. Two million total cells were stained with antibodies as indicated. Intracellular detection of FoxP3 was achieved following permeabilization with BD Perm Buffer III (BD Biosciences) and eBioscience Fix/Perm respectively. Following surface staining, samples were acquired on a BD Fortessa and analyzed using FlowJo (Treestar) software.

The next data set relates to B cell receptor. In words: Whole blood potency: CD69 on CD19+ B cells after anti-human IgD. The class given is cell-based. The note with it: blood from four healthy donors, 2 hours with compound, anti-human IgD 10 μg/mL 18 hours, read-out: EC50, CD69 on gated CD19+ B cells in whole blood.
Setting [4] is: Formula (2) 15 mg/kg BID orally.

For `CC#CC(=O)N1CCC[C@H]1c1nc(-c2ccc(C(=O)Nc3ccccn3)cc2)c2c(N)nccn12` [Formula (2), (S)-4-(8-amino-3-(1-(but-2-ynoyl)pyrrolidin-2-yl)imidazo[1,5-α]pyrazin-1-yl)-N-(pyridin-2-yl)benzamide], in data set [1] (setting [4]), the “CD8+ cells in tumor tissues” value was “significant increase”, the “immunosuppressive MDSCs (Gr1+Ly6CHi) in tumor tissues” value is “significantly reduced”, the “immunosuppressive TAMs (CD11b+Ly6ClowF4/80+Csf1r+) in tumor tissues” value is “significantly reduced” and the “immunosuppressive Tregs (CD4+CD25+FoxP3+) in tumor tissues” value is given as “significantly reduced”. For the same compound, in data set [1] (setting [4]), the “survival at day 14” value is recorded as 6/6 and the “survival at day 28” value was 5/6. In addition, the “tumor volume, day 28 average” value in data set [1] (Formula (2) 15 mg/kg BID orally (N=6), day 28) worked out at 272 mm^3. In addition, the “tumor volume, predose average” value in data set [1] (cohort treated with Formula (2) 15 mg/kg BID orally (N=6), predose) is reported as 165 mm^3. Also, in the data set on NSCLC (KrasLA2), the “immunosuppressive tumor associated MDSCs” value is reported as “significant reduction”, the “immunosuppressive tumor associated TAMs” value is given as “significant reduction”, the “immunosuppressive tumor associated Tregs” value is recorded as “significant reduction” and the number of tumors result was “fewer overall tumors”. In the data set with NSCLC (KrasLA2), the “tumor volumes versus vehicle (microCT)” value was “significant decrease”. Also, the “effect on Th17 cells / Th17 development” value in the data set on Th17 cells is “no adverse effect”. Besides, the “effect on GPVI platelet aggregation” value in the data set on GPVI (CVX-induced human platelet aggregation) is “does not”. For the same compound, in the data set with GPVI (purified human platelets, convulxin (CVX)), the pIC50 is 5.94. The “in vivo potency at inhibiting expression of activation markers CD69 and CD86” value in data set [2] is recorded as “more potent”. The “effect on rituximab-mediated ADCC, primary CLL / autologous tumor cells” value in the data set on primary CLL cells is reported as “not inhibited”. The tumor burden result in data set [3] is given as “reduction in tumor burden”. Further, in the data set on B cell receptor, the negative logarithm of the EC50 (pEC50) was 8.09.
